In patent US6265611A, “Hydroxymandelic acid amides of phenolic amines” (Haarmann & Reimer GmbH, priority 1999, dated 2001):

Legend:
[1] = DPPH test, activity as free-radical scavenger; format: biochemical; conditions: EC = c(test compound)/c(DPPH); DPPH 100 μmol/l in methanol; absorption at 515 nm
Experimental: The activity of the compounds according to Examples 1 to 7 as free-radical scavengers was compared with the conventional free-radical scavenger. For this purpose, the DPPH (1,1-diphenyl-2-picryl-hydrazyl) test for the removal of […] was used.
DPPH was dissolved in methanol to a concentration of 100 μmol/l. A series of dilutions of the illustrative compound, vitamin C, α tocopherol, butylated hydroxytoluene and ferulic acid in methanol were prepared. Methanol was used as the control. 2500 μl of the DPPH solution were mixed with 500 μl of each test solution and the decrease in absorption at 515 nm was read until the decrease was less than 2% per hour. The activity of the test substances as free-radical scavengers was calculated using the following equation:
Activity as free-radical scavenger (%)=100-(absorption of the test
compounds)/ (absorption of the control)×100.

[2] = Activity as antioxidants: accelerated autoxidation of lipids by air (Rancimat); conditions: AOI = IP(with test solution)/IP(control sample); 0.05% test substance; soybean oil, 100° C., air 20 l/h
Experimental: The activity of the illustrative compounds 1 to 7 as antioxidants was compared with that of traditional antioxidants. The test system used was the accelerated autoxidation of lipids by air with or without antioxidant using the Rancimat apparatus (Rancimat is a registered trade mark of Metrohm AG, Herisau, Switzerland). The illustrative compounds, vitamin C, α-tocopherol, ferulic acid and butylated hydroxytoluene were dissolved in methanol or acetone, and 100 μl of each test solution were added to a 3 g prepared oil sample (soybean oil, purified over alumina type N). In a control sample, only solvent was added. A constant, dry stream of air (20 l/h) was blown through the oil sample, which contained the test solution and was heated to 100° C., and the volatile oxidation product (predominantly short-chain fatty acids such as formic or acetic acid) were collected in a trap containing water. The conductivity of this aqueous solution was continuously measured and recorded. […] The time to the increase is referred to as the induction period (IP). The following equation was used to calculate the antioxidative index (AOI): AOI=IP(with test solution) /IP(control sample)

[3] = Solubility in aqueous media (water/DMSO 95:5); format: physicochemical
Experimental: The aqueous medium used by way, of example, was a mixture of 95 parts by weight of water and 5 parts by weight of DMSO. The compounds to be tested were weighed into a glass vessel, admixed with a defined amount of solvent and treated with ultrasound at room temperature for 5 min.

Compound	EC50 (effective relative concentration at which 50% of the free radical DPPH had been removed) [1]	antioxidative index (AOI) with 0.05% of test substance [2]	Solubility in a mixture of water (95 parts by weight) and DMSO (5 parts by weight) [3]
Cc1cc(C(C)(C)C)c(O)c(C(C)(C)C)c1 [Butylated hydroxytoluene, reference compound]	0.240 mol/mol	4.77	
COc1cc(C(O)C(=O)NCCc2ccc(O)c(O)c2)ccc1O (centres unmarked) [Example 1, N-(3,4-dihydroxyphenethyl)-2-hydroxy-2-(4-hydroxy-3 methoxyphenyl)acetamide]	0.131 mol/mol	13.0	5-10 % by weight
O=C(NCCc1ccc(O)c(O)c1)C(O)c1ccc(O)c(O)c1 (centres unmarked) [Example 2, N-(3,4-dihydroxyphenethyl)-2-(3,4-dihydroxyphenyl)-2-hydroxyacetamide]	0.104 mol/mol	16.9	> 10 % by weight
COc1cc(C(O)C(=O)NCc2ccc(O)c(O)c2)ccc1O (centres unmarked) [Example 3, N-(3,4-dihydroxybenzyl)-2-hydroxy-2-(4-hydroxy-3methoxyphenyl)acetamide]	0.195 mol/mol	9.8	> 10 % by weight
COc1cc(C(O)C(=O)NCc2cc(O)c(O)c(O)c2)ccc1O (centres unmarked) [Example 4, 2-Hydroxy-2-(4-hydroxy-3-methoxyphenyl)-N-(3,4,5-trihydroxybenzyl)acetamide]	0.198 mol/mol	11.0	0.5-1 % by weight
COc1cc(CNC(=O)C(O)c2ccc(O)c(O)c2)ccc1O (centres unmarked) [Example 5, 2-(3,4-Dihydroxyphenyl)-2-hydroxy-N-(4-hydroxy-3 methoxybenzyl)acetamide]	0.199 mol/mol	12.6	0.05-0.1 % by weight
O=C(NCc1ccc(O)c(O)c1)C(O)c1ccc(O)c(O)c1 (centres unmarked) [Example 6, N-(3,4-dihydroxybenzyl)-2-(3,4-dihydroxyphenyl)-2-hydroxyacetamide]	0.069 mol/mol	17.5	0.1-0.5 % by weight
O=C(NCc1cc(O)c(O)c(O)c1)C(O)c1ccc(O)c(O)c1 (centres unmarked) [Example 7, 2-(3,4-Dihydroxyphenyl)-2-hydroxy-N-(3,4,5-trihydroxybenzyl)acetamide]	0.085 mol/mol	16.4	0.5-1 % by weight
COc1cc(/C=C/C(=O)O)ccc1O [Ferulic acid, reference compound]	0.350 mol/mol	1.79	
O=C1O[C@H]([C@@H](O)CO)C(O)=C1O [Vitamin C, ascorbic acid, reference compound]	0.270 mol/mol	1.17	
Cc1c(C)c2c(c(C)c1O)CCC(C)(CCCC(C)CCCC(C)CCCC(C)C)O2 (stereo not drawn) [α-Tocopherol, reference compound]	0.250 mol/mol	5.05	
